For one experiment, the species on record is Bos taurus. The experiment in a line: Inhibition of bovine brain tubulin assessed as blockade of microtubule polymerization.
Experiment [1] concerns DU-145. Nature of the experiment: Cytotoxicity against human DU145 cells after 96 hrs by SRB assay. The note with it: DU-145, 96 h.
In another experiment the test system is PPC-1. Nature of the experiment: Cytotoxicity against human PPC1 cells after 96 hrs by SRB assay. The settings on record: Homo sapiens, PPC-1, 96 h. For orientation: In SRB staining, fixed cells bind dye roughly in proportion to their protein.
A short description of experiment [2]: Cytotoxicity against mouse B16-F1 cells after 48 hrs by SRB assay. The note with it: B16-F1, 48 h. In kind it is functional, cell-based.
For a further experiment, the system named is LNCaP. Nature of the experiment: Cytotoxicity against human LNCAP cells after 96 hrs by SRB assay. The note with it: Homo sapiens, LNCaP, 96 h.
The subject of the next experiment is PC-3. Nature of the experiment: Cytotoxicity against human PC3 cells after 96 hrs by SRB assay. The note with it: PC-3, 96 h.
In the next experiment the test system is A-375. Nature of the experiment: Cytotoxicity against human A375 cells after 48 hrs by SRB assay. The note with it: A-375, 48 h. In kind it is functional, cell-based.
The subject of experiment [3] is DU-145. The experiment in a line: Cytotoxicity against human DU145 cells after 48 hrs by SRB assay. In kind it is functional, cell-based. The settings on record: DU-145, 48 h.

Drawing on ChEMBL document CHEMBL1152784, “Discovery of 4-substituted methoxybenzoyl-aryl-thiazole as novel anticancer agents: synthesis, biological evaluation, and structure-activity relationships” (J Med Chem, 2009), this text covers Activity and IC50 for nine molecules.

A value given as a limit tells only on which side of the number the result lay.

Broadly, the IC50 is the concentration needed to halve the response being measured. With `COc1cc(C(=O)c2csc(-c3ccccc3)n2)cc(OC)c1OC`, the Activity result in the experiment filed under Bos taurus is “Dose-dependent effect”. Moreover, the 50% inhibitory concentration (IC50) in the experiment with DU-145 [1] turned out to be 0.071 µM; in the experiment with PPC-1 it was 0.043 µM; in experiment [2], 0.055 µM; with LNCaP it was 0.028 µM; in the experiment on PC-3, 0.021 µM; in the experiment with A-375 it was 0.028 µM.
Turning to `COc1ccc(-c2nc(C(=O)c3cc(OC)c(OC)c(OC)c3)cs2)cc1OC`, the IC50 is 0.056 µM in the experiment with PPC-1; 0.161 µM in experiment [2]; 0.038 µM in the experiment with LNCaP; 102 µM in the experiment with DU-145 [3]; 0.069 µM in the experiment on PC-3; 0.034 µM in the experiment on A-375.
For `COc1cc(C(=O)c2csc(-c3ccncc3)n2)cc(OC)c1OC`, the half-maximal inhibitory concentration (IC50) in the experiment with DU-145 [1] was more than 20 µM; in the experiment on PPC-1, more than 20 µM; in experiment [2] it was more than 100 µM; with LNCaP it was more than 20 µM; in the experiment with PC-3, more than 20 µM; in the experiment on A-375 it was more than 100 µM.
Turning to `COc1cccc(C(=O)c2csc(-c3ccccc3)n2)c1`, the IC50 in the experiment on DU-145 [1] was more than 20 µM; in the experiment with PPC-1, more than 20 µM; in experiment [2], more than 100 µM; in the experiment with LNCaP it was more than 20 µM; with PC-3, more than 20 µM; with A-375 it was more than 100 µM.
For `COc1ccccc1C(=O)c1csc(-c2ccccc2)n1`, the half-maximal inhibitory concentration (IC50) is more than 20 µM with DU-145 [1]; more than 20 µM with PPC-1; 59.4 µM in experiment [2]; more than 20 µM in the experiment on LNCaP; more than 20 µM with PC-3; 70.3 µM in the experiment with A-375.
For `COc1ccc(C(=O)c2csc(-c3ccccc3)n2)cc1`, the IC50 is more than 20 µM in the experiment on DU-145 [1]; more than 20 µM with PPC-1; more than 100 µM in experiment [2]; more than 20 µM in the experiment on LNCaP; more than 20 µM in the experiment on PC-3; more than 100 µM in the experiment on A-375.
`O=C(c1cc(O)c(O)c(O)c1)c1csc(-c2ccccc2)n1`: the IC50 with DU-145 [1] was more than 20 µM; in the experiment on PPC-1, more than 20 µM; in experiment [2], more than 100 µM; with LNCaP, more than 20 µM; in the experiment on PC-3, more than 20 µM; in the experiment with A-375 it was more than 100 µM.
With `COc1cc(C(=O)c2csc(-c3ccc(C(=O)O)cc3)n2)cc(OC)c1OC`, the concentration for half-maximal inhibition (IC50) is more than 20 µM in the experiment with DU-145 [1]; more than 20 µM with PPC-1; more than 100 µM in experiment [2]; more than 20 µM in the experiment with LNCaP; more than 20 µM with PC-3; more than 100 µM with A-375.
`COc1cc(NC(=O)[C@@H]2CSC(c3ccccc3)=N2)cc(OC)c1OC`: the IC50 in the experiment with DU-145 [1] was more than 20 µM; in the experiment on PPC-1, 5.3 µM; in experiment [2], 38.3 µM; in the experiment on LNCaP, more than 20 µM; in the experiment with PC-3, more than 20 µM; with A-375, 22.8 µM.
